Results on 19 compounds are retold here after patent publication US20260265238A1, “COMPOUNDS AND PHARMACEUTICAL COMPOSITIONS THAT DEGRADE SWI/SNF-RELATED MATRIX-ASSOCIATED ACTIN-DEPENDENT REGULATOR OF CHROMATIN SUBFAMILY A” (Plexium, Inc., priority 2023, published 2026).

Molecules are shown by their SMILES.

Assay [1] has as its target T1, SMARCA2-HiBiT HeLa cells (protein which is expressed from the SMARCA2 gene) (Homo sapiens, UniProt P51531).
T1 construct: protein which is expressed from the SMARCA2 and SMARCA4 genes; host or cells: HeLa (SMARCA2-HiBiT engineered line)
Kind of assay: SMARCA2 degradation assay (HiBiT-fusion HeLa cell line, 24 h, luminescence). It is filed as cell-based. In a few lines:
(§1)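 SMARCA2- or SMARCA4-HiBiT HeLa cells seeded overnight at 37° C, then given compound as a 10-point dilution (typically 10 μM to 300 pM) for 24 h at 37° C. Protein level read by HiBiT lytic detection luminescence; DC50 from dose-response curves; degradation also scored at 1 μM.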
On the technique in general: HiBiT is a short tag that completes a luciferase, so light tracks the accessible tagged protein.

The target in assay [2] is T2, SMARCA4-HiBiT HeLa cells (protein which is expressed from the SMARCA4 gene) (Homo sapiens, UniProt P51532).
T2 construct: protein which is expressed from the SMARCA2 and SMARCA4 genes; host or cells: HeLa (SMARCA4-HiBiT engineered line)
T2 sequence (P51532 whole entry): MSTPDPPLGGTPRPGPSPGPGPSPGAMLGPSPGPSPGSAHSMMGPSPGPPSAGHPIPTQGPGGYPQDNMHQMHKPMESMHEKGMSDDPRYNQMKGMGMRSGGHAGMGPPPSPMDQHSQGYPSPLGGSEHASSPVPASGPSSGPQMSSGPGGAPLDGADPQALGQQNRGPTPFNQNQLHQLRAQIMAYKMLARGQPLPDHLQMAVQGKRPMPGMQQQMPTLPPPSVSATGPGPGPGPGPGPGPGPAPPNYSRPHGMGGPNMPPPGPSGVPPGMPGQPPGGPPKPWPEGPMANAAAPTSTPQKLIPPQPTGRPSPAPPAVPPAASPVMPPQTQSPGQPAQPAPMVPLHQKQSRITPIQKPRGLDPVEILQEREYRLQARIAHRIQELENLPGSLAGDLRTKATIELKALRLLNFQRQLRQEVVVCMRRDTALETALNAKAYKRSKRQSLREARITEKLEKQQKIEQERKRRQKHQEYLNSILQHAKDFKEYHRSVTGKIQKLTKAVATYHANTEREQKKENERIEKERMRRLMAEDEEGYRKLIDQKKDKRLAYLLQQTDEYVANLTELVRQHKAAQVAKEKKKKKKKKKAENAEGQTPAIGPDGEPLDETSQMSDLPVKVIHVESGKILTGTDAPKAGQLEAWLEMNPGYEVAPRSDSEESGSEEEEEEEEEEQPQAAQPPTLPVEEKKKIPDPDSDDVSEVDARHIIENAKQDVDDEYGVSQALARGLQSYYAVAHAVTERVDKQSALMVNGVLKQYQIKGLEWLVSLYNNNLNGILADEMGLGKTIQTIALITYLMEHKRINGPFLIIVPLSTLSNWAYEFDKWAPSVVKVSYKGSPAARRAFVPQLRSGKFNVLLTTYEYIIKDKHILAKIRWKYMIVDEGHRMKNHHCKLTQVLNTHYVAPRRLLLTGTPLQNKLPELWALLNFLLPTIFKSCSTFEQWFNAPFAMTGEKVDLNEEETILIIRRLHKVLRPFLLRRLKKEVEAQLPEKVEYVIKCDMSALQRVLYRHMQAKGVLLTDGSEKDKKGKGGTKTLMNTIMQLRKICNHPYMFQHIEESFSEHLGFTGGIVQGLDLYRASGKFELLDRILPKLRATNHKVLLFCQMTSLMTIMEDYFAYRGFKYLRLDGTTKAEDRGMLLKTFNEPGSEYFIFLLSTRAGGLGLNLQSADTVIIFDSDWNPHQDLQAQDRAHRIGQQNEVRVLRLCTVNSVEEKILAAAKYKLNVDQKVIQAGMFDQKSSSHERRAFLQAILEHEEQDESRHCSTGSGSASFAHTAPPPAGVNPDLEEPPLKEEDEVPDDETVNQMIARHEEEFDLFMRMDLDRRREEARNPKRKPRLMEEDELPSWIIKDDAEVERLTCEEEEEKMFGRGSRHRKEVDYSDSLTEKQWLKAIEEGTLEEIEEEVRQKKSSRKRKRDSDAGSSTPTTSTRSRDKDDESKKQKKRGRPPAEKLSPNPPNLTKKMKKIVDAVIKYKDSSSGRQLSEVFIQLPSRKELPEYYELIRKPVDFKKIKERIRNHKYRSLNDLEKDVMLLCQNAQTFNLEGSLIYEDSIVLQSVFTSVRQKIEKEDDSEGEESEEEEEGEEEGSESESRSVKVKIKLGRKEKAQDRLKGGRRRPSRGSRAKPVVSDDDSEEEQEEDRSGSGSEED
Kind of assay: SMARCA4 degradation assay (HiBiT-fusion HeLa cell line, 24 h, luminescence). It is filed as cell-based. A digest of the protocol:
as §1

T1 sequence (P51531 whole entry): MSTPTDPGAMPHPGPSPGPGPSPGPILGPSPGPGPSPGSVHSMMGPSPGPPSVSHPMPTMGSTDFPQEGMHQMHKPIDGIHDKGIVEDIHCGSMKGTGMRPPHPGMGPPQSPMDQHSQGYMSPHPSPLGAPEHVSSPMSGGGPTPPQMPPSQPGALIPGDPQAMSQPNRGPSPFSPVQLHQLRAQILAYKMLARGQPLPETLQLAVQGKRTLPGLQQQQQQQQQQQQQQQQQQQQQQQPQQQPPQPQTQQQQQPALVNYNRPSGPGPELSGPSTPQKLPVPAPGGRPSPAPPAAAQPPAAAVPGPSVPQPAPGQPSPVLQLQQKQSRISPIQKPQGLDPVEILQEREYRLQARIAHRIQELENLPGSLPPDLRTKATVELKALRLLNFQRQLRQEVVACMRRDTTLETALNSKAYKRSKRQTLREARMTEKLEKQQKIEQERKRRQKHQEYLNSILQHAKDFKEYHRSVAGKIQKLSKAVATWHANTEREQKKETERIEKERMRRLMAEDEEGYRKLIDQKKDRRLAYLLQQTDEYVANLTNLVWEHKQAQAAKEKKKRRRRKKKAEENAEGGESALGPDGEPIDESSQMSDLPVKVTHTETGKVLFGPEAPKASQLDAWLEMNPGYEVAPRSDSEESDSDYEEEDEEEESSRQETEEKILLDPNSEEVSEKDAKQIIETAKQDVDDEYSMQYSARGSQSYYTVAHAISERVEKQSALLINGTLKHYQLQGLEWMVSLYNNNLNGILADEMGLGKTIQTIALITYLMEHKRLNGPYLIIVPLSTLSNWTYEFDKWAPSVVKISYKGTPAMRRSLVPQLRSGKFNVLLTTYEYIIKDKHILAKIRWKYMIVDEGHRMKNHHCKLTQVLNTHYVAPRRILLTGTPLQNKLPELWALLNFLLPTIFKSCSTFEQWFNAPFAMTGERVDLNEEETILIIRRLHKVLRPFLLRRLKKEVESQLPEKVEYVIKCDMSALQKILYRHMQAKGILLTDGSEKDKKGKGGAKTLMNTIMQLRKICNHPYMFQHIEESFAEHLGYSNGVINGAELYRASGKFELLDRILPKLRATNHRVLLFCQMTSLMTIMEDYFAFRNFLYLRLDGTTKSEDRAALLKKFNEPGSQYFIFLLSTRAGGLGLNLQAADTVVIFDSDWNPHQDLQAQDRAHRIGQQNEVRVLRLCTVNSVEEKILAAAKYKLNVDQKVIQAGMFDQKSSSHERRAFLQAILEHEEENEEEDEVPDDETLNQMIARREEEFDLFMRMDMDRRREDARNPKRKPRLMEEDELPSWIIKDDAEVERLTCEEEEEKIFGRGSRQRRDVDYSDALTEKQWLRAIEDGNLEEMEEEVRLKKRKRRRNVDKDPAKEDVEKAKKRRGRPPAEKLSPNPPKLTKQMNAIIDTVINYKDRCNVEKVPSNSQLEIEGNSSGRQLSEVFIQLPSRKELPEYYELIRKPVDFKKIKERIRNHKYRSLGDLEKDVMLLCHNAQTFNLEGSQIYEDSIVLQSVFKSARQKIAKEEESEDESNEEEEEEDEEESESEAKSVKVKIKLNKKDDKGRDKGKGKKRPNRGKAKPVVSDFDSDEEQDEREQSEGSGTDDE

For orientation: DC50 means the concentration at which degradation of the target reaches its halfway point. Read a high DC50 as degradation only at high concentration. Usually inhibition stands for the relative decrease from the control value, in per cent. A low value points to a response near the control. As for `C[C@@H]1CN(CC#Cc2nccc(N3CCCN(c4cc(-c5ccccc5O)nnc4N)CC3)n2)C[C@@H](C)O1` [Compound P-356, 0-{5-[4-(2-{3-[(2R,6R)-2,6-dimethyl-4-morpholinyl]-1-propynyl}-4-pyrimidinyl)-1,4-diazepan-1-yl]-6-amino-3-pyridazinyl}phenol], in assay [1], the DC50 was in the range of 500 to 5000 nM and the “SMARCA2 % Degradation @ 1 μM” value is reported as “++ (++=30-70%)”. The same compound gave a DC50 in assay [2] of 500 to 5000 nM. Further, in assay [2] (@ 1 μM), the inhibition at 1 µM was < 30%.

On to `N#CC1CCN(CC#Cc2nccc(N3CCCN(c4cc(-c5ccccc5O)nnc4N)CC3)n2)CC1` [Compound P-357, 1-[3-(4-{4-[3-amino-6-(o-hydroxyphenyl)-4-pyridazinyl]-1,4-diazepan-1-yl}-2-pyrimidinyl)-2-propynyl]-4-piperidinecarbonitrile], for which, in assay [1], the DC50 is 50 to 500 nM and the “SMARCA2 % Degradation @ 1 μM” value is given as “++ (++=30-70%)”. This compound gave a DC50 in assay [2] of 500 to 5000 nM. The compound also showed an inhibition at 1 µM in assay [2] (@ 1 μM) of 30 to 70%.

As to `CC(C)(C)OC(=O)N1C2CCC1CN(CC#Cc1nccc(N3CCCN(c4cc(-c5ccccc5O)nnc4N)CC3)n1)C2` [Compound P-358, tert-butyl 3-[3-(4-{4-[3-amino-6-(o-hydroxyphenyl)-4-pyridazinyl]-1,4-diazepan-1-y1}-2-pyrimidinyl)-2-propynyl]-3,8-diazabicyclo[3.2.1]octane-8-carboxylate], in assay [1], the DC50 is 500 to 5000 nM and the “SMARCA2 % Degradation @ 1 μM” value is listed as “++ (++=30-70%)”. This compound returned a DC50 in assay [2] of 500 to 5000 nM. Besides, the inhibition at 1 µM in assay [2] (@ 1 μM) lay in the range of 30 to 70%.

Turning to `Nc1nnc(-c2ccccc2O)cc1N1CCCN(c2ccnc(C#CC3CC3)n2)CC1` [Compound P-359, 0-(6-amino-5-{4-[2-(2-cyclopropylethynyl)-4-pyrimidinyl]-1,4-diazepan-1-yl}-3-pyridazinyl)phenol], in assay [1], the DC50 lay within 50 to 500 nM and the “SMARCA2 % Degradation @ 1 μM” value is listed as “++ (++=30-70%)”. In addition, the DC50 in assay [2] lay within 50 to 500 nM. In assay [2] (@ 1 μM), the inhibition at 1 µM was < 30%.

For `CCC1CN(CC#Cc2nccc(N3CCCN(c4cc(-c5ccccc5O)nnc4N)CC3)n2)c2ccccc2O1` (stereo not shown) [Compound P-360, 0-[6-amino-5-(4-{2-[3-(2-ethyl-3,4-dihydro-2H-1,4-benzoxazin-4-yl)-1-propynyl]-4-pyrimidinyl}-1,4-diazepan-1-yl)-3-pyridazinyl]phenol], in assay [1], the DC50 was in the range of 50 to 500 nM and the “SMARCA2 % Degradation @ 1 μM” value was “++ (++=30-70%)”. Also, in assay [2], the DC50 lay in the range of 50 to 500 nM. This compound also displayed an inhibition at 1 µM in assay [2] (@ 1 μM) of 30 to 70%.

In the case of `Nc1nnc(-c2ccccc2O)cc1N1CCCN(c2ccnc(C#CCN3CCCC(O)C3)n2)CC1` (stereo not shown) [Compound P-361, 1-[3-(4-{4-[3-amino-6-(o-hydroxyphenyl)-4-pyridazinyl]-1,4-diazepan-1-yl}-2-pyrimidinyl)-2-propynyl]-3-piperidinol], in assay [1], the DC50 lay within 500 to 5000 nM and the “SMARCA2 % Degradation @ 1 μM” value is recorded as “++ (++=30-70%)”. The same compound returned a DC50 in assay [2] of 500 to 5000 nM. The inhibition at 1 µM in assay [2] (@ 1 μM) is < 30%.

For `CN1C(=O)NC2(CCN(CC#Cc3nccc(N4CCCN(c5cc(-c6ccccc6O)nnc5N)CC4)n3)CC2)C1=O` [Compound P-362, 8-[3-(4-{4-[3-amino-6-(o-hydroxyphenyl)-4-pyridazinyl]-1,4-diazepan-1-yl}-2-pyrimidinyl)-2-propynyl]-3-methyl-1,3,8-triaza-2,4-spiro [4.5]decanedione], the DC50 in assay [1] lay within 50 to 500 nM; in assay [2], 500 to 5000 nM. Moreover, the “SMARCA2 % Degradation @ 1 μM” value in assay [1] was “++ (++=30-70%)”. The compound also gave an inhibition at 1 µM in assay [2] (@ 1 μM) of 30 to 70%.

Regarding `Nc1nnc(-c2ccccc2O)cc1N1CCCN(c2ccnc(C#CCN3CCn4c(nnc4C(F)(F)F)C3)n2)CC1` [Compound P-363, 0-{6-amino-5-[4-(2-{3-[3-(trifluoromethyl)-4,5,6,7-tetrahydro-1,2,3a,6-tetraaza-6-indenyl]-1-propynyl}-4-pyrimidinyl)-1,4-diazepan-1-yl]-3-pyridaziny1} phenol], in assay [1], the DC50 was 500 to 5000 nM and the “SMARCA2 % Degradation @ 1 μM” value is given as “++ (++=30-70%)”. This compound also registered a DC50 in assay [2] of 500 to 5000 nM. This compound also had an inhibition at 1 µM in assay [2] (@ 1 μM) of 30 to 70%.

`Nc1nnc(-c2ccccc2O)cc1N1CCCN(c2ccnc(C#CCN3CC(=O)NC(=O)C3)n2)CC1` [Compound P-364, 4-[3-(4-{4-[3-amino-6-(o-hydroxyphenyl)-4-pyridazinyl]-1,4-diazepan-1-yl}-2-pyrimidinyl)-2-propynyl]-2,6-piperazinedione]: in assay [1], the DC50 lay within 500 to 5000 nM and the “SMARCA2 % Degradation @ 1 μM” value is on record as “++ (++=30-70%)”. The compound further came in with a DC50 in assay [2] of 500 to 5000 nM. In addition, the inhibition at 1 µM in assay [2] (@ 1 μM) was < 30%.

In the case of `Nc1nnc(-c2ccccc2O)cc1N1CCCN(c2ccnc(C#CCN3CCN(C(=O)C4CC4)CC3)n2)CC1` [Compound P-365, {4-[3-(4-{4-[3-amino-6-(o-hydroxyphenyl)-4-pyridaziny1]-1,4-diazepan-1-yl}-2-pyrimidinyl)-2-propynyl]-1-piperazinyl}cyclopropylmethanone], in assay [1], the DC50 was 500 to 5000 nM and the “SMARCA2 % Degradation @ 1 μM” value is “++ (++=30-70%)”. In assay [2], the DC50 lay in the range of 500 to 5000 nM. In assay [2] (@ 1 μM), this compound came in with an inhibition at 1 µM of 30 to 70%.

Take `Nc1nnc(-c2ccccc2O)cc1N1CCCN(c2ccnc(C#CCN3CCCC3)n2)CC1` [Compound P-366, 0-[6-amino-5-(4-{2-[3-(1-pyrrolidinyl)-1-propynyl]-4-pyrimidinyl}-1,4-diazepan-1-yl)-3-pyridazinyl]phenol]: in assay [1], the DC50 fell in the range of 50 to 500 nM and the “SMARCA2 % Degradation @ 1 μM” value is “+++ (+++=>70%)”. The DC50 in assay [2] was 50 to 500 nM. Moreover, in assay [2] (@ 1 μM), the inhibition at 1 µM was > 70%.

On to `Nc1nnc(-c2cc(F)ccc2O)cc1N1CCCN(c2ccnc(C#CCNC(=O)c3cc4ncccn4n3)n2)CC1` [Compound P-367, N-[3-(4-{4-[3-amino-6-(5-fluoro-2-hydroxyphenyl)-4-pyridazinyl]-1,4-diazepan-1-y1}-2-pyrimidinyl)-2-propynyl]-1,4,7a-triaza-2-indenecarboxamide], for which, in assay [1], the DC50 fell in the range of 500 to 5000 nM and the “SMARCA2 % Degradation @ 1 μM” value was “++ (++=30-70%)”. Also, the DC50 in assay [2] lay in the range of 500 to 5000 nM. In addition, the inhibition at 1 µM in assay [2] (@ 1 μM) was < 30%.

As to `CC(C)(C)OC(=O)NC1CCN(CC#Cc2nccc(N3C4CCC3CN(c3cnnc(-c5ccccc5O)c3)C4)n2)CC1` [Compound P-368, tert-butyl-1-[3-(4-{3-[6-(o-hydroxyphenyl)-4-pyridazinyl]-3,8-diazabicyclo[3.2.1]oct-8-y1}-2-pyrimidinyl)-2-propynyl]-4-piperidylaminoformylate], the DC50 in assay [1] and in assay [2] was 50 to 500 nM in each case. Also, the “SMARCA2 % Degradation @ 1 μM” value in assay [1] is reported as “++ (++=30-70%)”. Moreover, the “SMARCA4 % Degradation @ 1 μM” value in assay [2] (@ 1 μM) is “++ (++=30-70%)”.

Turning to `Oc1ccccc1-c1cc(N2CC3CCC(C2)N3c2ccnc(C#CCN3CCCCC3)n2)cnn1` [Compound P-369, 0-(5-{8-[2-(3-piperidino-1-propynyl)-4-pyrimidinyl]-3,8-diazabicyclo[3.2.1]oct-3-y1}-3-pyridazinyl)phenol], in assay [1], the DC50 was < 50 nM and the “SMARCA2 % Degradation @ 1 μM” value was “++ (++=30-70%)”. In assay [2], this compound showed a DC50 of 500 to 5000 nM. In assay [2] (@ 1 μM), the inhibition at 1 µM was < 30%.

On to `Nc1nnc(-c2ccccc2O)cc1N1CCCN(c2ccnc(C#CCN3CCOC4(CCCC4)C3)n2)CC1` [Compound P-370, 0-{6-amino-5-[4-(2-{3-(6-oxa-9-aza-9-spiro[4.5]decyl)-1-propynyl}-4-pyrimidinyl)-1,4-diazepan-1-yl]-3-pyridazinyl}phenol], for which, in assay [1], the DC50 lay within 50 to 500 nM and the “SMARCA2 % Degradation @ 1 μM” value was “+++ (+++=>70%)”. Further, the DC50 in assay [2] lay within 50 to 500 nM. Further, the inhibition at 1 µM in assay [2] (@ 1 μM) lay within 30 to 70%.

`CC(C)(C)OC(=O)N1CC(C#Cc2nccc(N3CCCN(c4cc(-c5ccccc5O)nnc4N)CC3)n2)C1` [Compound P-371, tert-butyl 3-[2-(4-{4-[3-amino-6-(o-hydroxyphenyl)-4-pyridaziny1]-1,4-diazepan-1-yl}-2-pyrimidinyl)ethynyl]-1-azetidinecarboxylate]: in assay [1], the DC50 lay in the range of 50 to 500 nM and the “SMARCA2 % Degradation @ 1 μM” value was “+++ (+++=>70%)”. The DC50 in assay [2] lay in the range of 50 to 500 nM. Also, the inhibition at 1 µM in assay [2] (@ 1 μM) lay within 30 to 70%.

Turning to `Nc1nnc(-c2ccccc2O)cc1N1CCCN(c2ccnc(C#CCN3CCCC3=O)n2)CC1` [Compound P-372, 1-[3-(4-{4-[3-amino-6-(o-hydroxyphenyl)-4-pyridaziny1]-1,4-diazepan-1-y1}-2-pyrimidinyl)-2-propynyl]-2-pyrrolidinone], in assay [1], the DC50 was 50 to 500 nM and the “SMARCA2 % Degradation @ 1 μM” value is “+++ (+++=>70%)”. In assay [2], this compound displayed a DC50 of 50 to 500 nM. Moreover, the inhibition at 1 µM in assay [2] (@ 1 μM) lay within 30 to 70%.

Turning to `Nc1nnc(-c2ccccc2O)cc1N1CCCN(c2ccnc(C#CCN3CCCCC3)n2)CC1` [Compound P-373, 0-(6-amino-5-{4-[2-(3-piperidino-1-propynyl)-4-pyrimidinyl]-1,4-diazepan-1-yl}-3-pyridazinyl)phenol], in assay [1], the 50% degradation concentration (DC50) was 50 to 500 nM and the “SMARCA2 % Degradation @ 1 μM” value is given as “+++ (+++=>70%)”. In assay [2], this compound gave a DC50 of 50 to 500 nM. The inhibition at 1 µM in assay [2] (@ 1 μM) was in the range of 30 to 70%.

Regarding `Nc1nnc(-c2ccccc2O)cc1N1CCCN(c2ccnc(C#CCN3CCOC3=O)n2)CC1` [Compound P-374, 3-[3-(4-{4-[3-amino-6-(o-hydroxyphenyl)-4-pyridazinyl]-1,4-diazepan-1-yl}-2-pyrimidinyl)-2-propynyl]-1,3-oxazolidin-2-one], in assay [1], the DC50 lay in the range of 50 to 500 nM and the “SMARCA2 % Degradation @ 1 μM” value is “+++ (+++=>70%)”. Besides, the DC50 in assay [2] fell in the range of 50 to 500 nM. In assay [2] (@ 1 μM), this compound registered an inhibition at 1 µM of 30 to 70%.
